Molecules are shown by their SMILES. Converted amounts (≈) assume the structure as drawn. Read-outs that look alike come from different tables or passages of the source.

This data set can be described thus: Solubility of the active component in Japanese Pharmacopoeia dissolution test fluids. Format: physicochemical. The protocol: As specific materials, N^2-[(2E)-3-(4-chlorophenyl)-2-propenoyl]-N-[2-oxo-2-(4-{[6-(trifluoromethyl)pyrimidine-4-yl]oxy}piperidine-1-yl)ethyl]-3-pyridine-2-yl-L-alaninamide (manufactured by Astellas Pharma Inc., a solubility to a dissolution test 1st fluid of the Japanese Pharmacopoeia: >100 µM, a solubility to a dissolution test 2nd fluid of the Japanese Pharmacopoeia: 23.2 µM, hereinafter abbreviated as a compound A) was selected as an active component, Poly(vinyl alcohol) [MW 6000] (manufactured by Polysciences, Inc., the same hereinafter unless otherwise specified) was selected as a thermoplastic polymer, maltitol (SweetPearl P200, manufactured by Roquette, the same hereinafter unless otherwise specified) was selected as a sugar alcohol, and Triethyl Citrate (manufactured by Tokyo Chemical Industry Co., Ltd., the same hereinafter unless otherwise specified) was selected as a plasticizer component.

`O=C(/C=C/c1ccc(Cl)cc1)N[C@@H](Cc1ccccn1)C(=O)NCC(=O)N1CCC(Oc2cc(C(F)(F)F)ncn2)CC1` [compound A, N^2-[(2E)-3-(4-chlorophenyl)-2-propenoyl]-N-[2-oxo-2-(4-{[6-(trifluoromethyl)pyrimidine-4-yl]oxy}piperidine-1-yl)ethyl]-3-pyridine-2-yl-L-alaninamide]: the solubility runs as follows: (dissolution test 1st fluid of the Japanese Pharmacopoeia, pH 1.2, simulated gastric fluid, read-out: solubility to a dissolution test 1st fluid of the Japanese Pharmacopoeia) over 100 µM; (dissolution test 2nd fluid of the Japanese Pharmacopoeia, pH 6.8, aqueous buffer, read-out: solubility to a dissolution test 2nd fluid of the Japanese Pharmacopoeia) 23.2 µM (≈ 14.3 µg/mL).

The record behind these values is patent US12377601B2, “Fast-eluting three-dimensionally molded object, filament for fast-eluting three-dimensionally molded object, and material for fast-eluting three-dimensionally molded object” (ASTELLAS PHARMA INC., priority 2016, dated 2025).
